Laboratory results taken from the supplement of paper PMC10307832.

Key:
Experiment in all cases: relative viability (nuclei count vs DMSO), 5 days (fraction); higher = more cells survive
Linsitinib + Phenformin = compound: C[C@]1(O)C[C@@H](c2nc(-c3ccc4ccc(-c5ccccc5)nc4c3)c3c(N)nccn32)C1 [Linsitinib] + N=C(N)NC(=N)NCCc1ccccc1 [Phenformin] (partner 250 µM)
Outline: (§1)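 Nuclei were stained with Hoechst during a one-step fixation (final 0.05% Triton X-100, 1% formaldehyde, 1 ug/ml Hoechst) carried out 5 days after dosing, then counted on 4× images. The cells, lung cancer lines in 1536-well plates, had been dosed by pin tool the day after seeding with one drug alone or a fixed anchor-drug dose plus five library-drug doses (not always all listed) in √10 steps. Relative viability is the nuclei count in treated wells divided by that in vehicle wells, and each value is the median of duplicate plates.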

Ispinesib + Olaparib = compound: Cc1ccc(C(=O)N(CCCN)[C@@H](c2nc3cc(Cl)ccc3c(=O)n2Cc2ccccc2)C(C)C)cc1 [Ispinesib] + O=C(c1cc(Cc2n[nH]c(=O)c3ccccc23)ccc1F)N1CCN(C(=O)C2CC2)CC1 [Olaparib] (partner 8 µM)
Outline: as §1

Ispinesib + Decitabine = compound: Cc1ccc(C(=O)N(CCCN)[C@@H](c2nc3cc(Cl)ccc3c(=O)n2Cc2ccccc2)C(C)C)cc1 [Ispinesib] + Nc1ncn([C@H]2C[C@H](O)[C@@H](CO)O2)c(=O)n1 [Decitabine] (partner 2 µM)
Outline: as §1

Ispinesib + Luminespib = compound: Cc1ccc(C(=O)N(CCCN)[C@@H](c2nc3cc(Cl)ccc3c(=O)n2Cc2ccccc2)C(C)C)cc1 [Ispinesib] + CCNC(=O)c1noc(-c2cc(C(C)C)c(O)cc2O)c1-c1ccc(CN2CCOCC2)cc1 [Luminespib] (partner 0.01 µM)
Outline: as §1

Row | Cell Line | relative viability (Linsitinib + Phenformin; first compound 0.01 µM) | relative viability (Linsitinib + Phenformin; first compound 0.03162 µM) | relative viability (Linsitinib + Phenformin; first compound 0.1 µM) | relative viability (Linsitinib + Phenformin; first compound 0.3162 µM) | relative viability (Linsitinib + Phenformin; first compound 1 µM) | relative viability (Ispinesib + Olaparib; first compound 0.001 µM) | relative viability (Ispinesib + Olaparib; first compound 0.003162 µM) | relative viability (Ispinesib + Olaparib; first compound 0.01 µM) | relative viability (Ispinesib + Olaparib; first compound 0.03162 µM) | relative viability (Ispinesib + Olaparib; first compound 0.1 µM) | relative viability (Ispinesib + Decitabine; first compound 0.001 µM) | relative viability (Ispinesib + Decitabine; first compound 0.003162 µM) | relative viability (Ispinesib + Decitabine; first compound 0.01 µM) | relative viability (Ispinesib + Decitabine; first compound 0.03162 µM) | relative viability (Ispinesib + Decitabine; first compound 0.1 µM) | relative viability (Ispinesib + Luminespib; first compound 0.001 µM) | relative viability (Ispinesib + Luminespib; first compound 0.003162 µM) | relative viability (Ispinesib + Luminespib; first compound 0.01 µM) | relative viability (Ispinesib + Luminespib; first compound 0.03162 µM) | relative viability (Ispinesib + Luminespib; first compound 0.1 µM)
1 | 201T | 0.405 | 0.475 | 0.434 | 0.449 | 0.338 | 0.859 | 0.905 | 0.958 | 0.822 | 0.79 | 0.849 | 0.859 | 0.897 | 0.889 | 0.839 | 1.07 | 1.05 | 1.15 | 0.988 | 0.937
2 | A549 | 0.2 | 0.264 | 0.173 | 0.0926 | 0.151 | 0.417 | 0.276 | 0.37 | 0.194 | 0.0705 | 0.149 | 0.254 | 0.326 | 0.315 | 0.196 |  |  |  |  | 
3 | A-427 | 0.383 | 0.321 | 0.301 |  | 0.233 | 0.714 | 0.784 | 0.728 | 0.696 | 0.22 | 0.578 | 0.539 | 0.587 | 0.395 | 0.3 | 1 | 1.11 | 1.33 | 0.352 | 0.389
4 | ABC-1 | 0.241 | 0.209 | 0.238 | 0.237 | 0.233 | 1.04 | 0.955 | 0.838 |  | 0.41 | 0.997 | 1.12 | 1.35 |  | 0.509 |  | 0.598 | 0.613 | 0.369 | 0.469
5 | BEN | 0.28 | 0.24 | 0.245 |  | 0.292 | 1.03 | 1.35 | 1.13 | 0.832 | 0.782 | 0.714 | 0.737 | 0.785 | 0.421 | 0.375 | 0.617 | 0.576 | 0.237 | 0.247 | 0.234
6 | CAL-12T | 0.573 | 0.573 | 0.619 | 0.528 | 0.558 | 0.754 | 0.791 | 0.896 | 0.768 | 0.217 |  |  |  |  |  | 0.318 | 0.394 | 0.688 | 0.379 | 0.236
7 | COR-L23 | 0.434 | 0.414 | 0.467 | 0.347 | 0.469 | 0.31 | 0.34 | 0.308 | 0.226 | 0.138 | 0.447 | 0.388 | 0.454 | 0.176 | 0.141 | 0.805 | 0.815 | 0.824 | 0.356 | 0.215
8 | COR-L 105 | 0.554 | 0.451 | 0.49 | 0.478 | 0.406 | 0.578 | 0.667 | 0.579 | 0.411 | 0.51 | 0.595 | 0.662 | 0.67 | 0.43 | 0.337 | 0.737 | 0.666 | 0.808 | 0.349 | 0.439
9 | Calu-6 |  |  |  |  |  | 0.56 |  | 0.422 | 0.193 | 0.192 |  |  |  |  |  |  |  |  |  | 
10 | ChaGo-K-1 | 0.527 | 0.515 | 0.499 | 0.332 | 0.457 | 0.399 | 0.449 | 0.431 | 0.445 | 0.382 | 0.463 | 0.56 | 0.494 | 0.574 | 0.521 | 0.727 | 0.712 | 0.82 | 0.639 | 0.492
11 | EBC-1 |  |  |  |  |  | 0.772 | 0.725 | 0.792 | 0.669 | 0.171 |  |  |  |  |  |  |  |  |  | 
12 | EKVX | 0.278 | 0.21 | 0.235 | 0.216 | 0.224 | 0.83 |  | 1.05 | 0.831 | 0.317 | 0.366 |  | 0.337 | 0.284 | 0.218 | 0.837 | 0.875 | 0.937 | 0.829 | 0.563
13 | EMC-BAC-2 | 0.506 | 0.487 | 0.485 | 0.322 | 0.388 | 0.479 | 0.474 | 0.513 | 0.418 | 0.325 | 0.933 | 1.13 | 1.04 | 0.775 | 0.47 | 0.797 | 1.32 | 1.36 | 1.13 | 0.6
14 | EPLC-272H | 0.369 | 0.335 |  |  | 0.312 | 0.776 | 0.781 | 0.769 | 0.308 | 0.155 | 0.395 | 0.355 | 0.377 | 0.322 | 0.25 | 0.215 | 0.326 | 0.25 | 0.196 | 0.234
15 | H3255 | 0.342 | 0.354 | 0.392 | 0.366 | 0.375 | 0.589 | 0.597 | 0.541 | 0.46 | 0.394 | 0.573 | 0.629 | 0.622 | 0.495 | 0.41 | 0.898 | 1.1 | 0.859 | 0.557 | 0.29
16 | HARA | 0.427 | 0.469 | 0.435 |  | 0.4 | 1.03 | 0.83 | 0.592 | 0.707 | 0.316 | 0.514 | 0.467 | 0.573 | 0.709 | 0.314 | 1.12 | 0.617 | 0.788 | 0.64 | 0.233
17 | HCC-15 | 0.512 | 0.46 | 0.433 |  | 0.292 | 0.683 | 0.759 | 0.917 | 0.831 | 0.445 | 0.706 | 0.768 | 0.752 | 0.418 | 0.225 | 0.286 | 0.322 | 0.459 | 0.229 | 0.227
18 | HCC-44 | 0.181 | 0.232 | 0.174 | 0.143 | 0.136 | 0.984 | 0.993 | 1.03 | 1.06 | 0.938 | 0.909 | 0.954 | 0.967 | 0.795 | 0.453 | 1.25 | 1.07 | 1.02 | 1.1 | 0.555
19 | HCC-78 | 0.551 | 0.717 | 0.565 | 0.701 | 0.621 | 0.876 | 0.82 | 0.887 | 0.704 | 0.59 | 0.68 | 0.732 | 0.825 | 0.577 | 0.578 |  |  |  |  | 
